In brackets after ≈: the same amount, converted by molar mass.
Assays:
Bacteria [1] = assay: Minimum inhibitory concentration for Gram-positive antibacterial activity by using standard MIC broth assay method; 0.25-0.5; assay type: functional
[2] = target: T1, KinA/Spo0F (sporulation kinase A/sporulation initiation phosphotransferase F) (Bacillus subtilis (strain 168), UniProt P06628+P16497); assay: Ability to inhibit autophosphorylation of KinA/Sp0F assay; assay type: protein assay
T1 sequence (P06628 whole entry): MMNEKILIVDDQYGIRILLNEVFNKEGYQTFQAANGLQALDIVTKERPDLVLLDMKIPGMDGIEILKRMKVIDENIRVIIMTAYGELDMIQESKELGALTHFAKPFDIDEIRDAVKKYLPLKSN
T1 sequence (P16497 whole entry): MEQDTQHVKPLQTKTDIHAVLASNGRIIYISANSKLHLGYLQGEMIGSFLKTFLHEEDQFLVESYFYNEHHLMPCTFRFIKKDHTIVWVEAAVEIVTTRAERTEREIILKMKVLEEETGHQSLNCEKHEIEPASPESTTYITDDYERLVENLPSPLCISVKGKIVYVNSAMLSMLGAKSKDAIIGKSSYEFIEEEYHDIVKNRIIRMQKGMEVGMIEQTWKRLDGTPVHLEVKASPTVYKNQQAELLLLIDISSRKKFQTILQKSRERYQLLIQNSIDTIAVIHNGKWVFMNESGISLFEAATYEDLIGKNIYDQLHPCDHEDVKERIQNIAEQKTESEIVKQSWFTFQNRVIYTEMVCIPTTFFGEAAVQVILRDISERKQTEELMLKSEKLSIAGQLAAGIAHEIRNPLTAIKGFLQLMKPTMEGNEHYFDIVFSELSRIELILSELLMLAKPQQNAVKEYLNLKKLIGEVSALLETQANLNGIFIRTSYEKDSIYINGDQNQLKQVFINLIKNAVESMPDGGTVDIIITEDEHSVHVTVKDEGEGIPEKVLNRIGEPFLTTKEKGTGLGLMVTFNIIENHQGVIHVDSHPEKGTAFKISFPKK

Bacteria [3] = assay: Minimum inhibitory concentration for Gram-positive antibacterial activity by using standard MIC broth assay method; 4-8; assay type: functional
Bacteria [4] = assay: Minimum inhibitory concentration for Gram-positive antibacterial activity by using standard MIC broth assay method; 0.25-1; assay type: functional
[5] = (§1) Inhibition of NRII and/or NRI phosphorylation in Escherichia coli
[6] = Ratio of NRII-NRI to KinA-Spo0F IC50s
Bacteria [7] = assay: Minimum inhibitory concentration for Gram-positive antibacterial activity by using standard MIC broth assay method; 0.1-0.5; assay type: functional
Bacteria [8] = assay: Minimum inhibitory concentration for Gram-positive antibacterial activity by using standard MIC broth assay method; 8-16; assay type: functional
Bacteria [9] = assay: Minimum inhibitory concentration for Gram-positive antibacterial activity by using standard MIC broth assay method; 0.5-1; assay type: functional
Bacteria [10] = assay: Minimum inhibitory concentration for Gram-positive antibacterial activity by using standard MIC broth assay method; 0.5-2; assay type: functional
Bacteria [11] = assay: Minimum inhibitory concentration for Gram-positive antibacterial activity by using standard MIC broth assay method; assay type: functional
[12] = as §1; assay type: functional

Compound | IC50 [2] [µM] | Ratio [6] | further results
Oc1c(Br)cc(Br)cc1-c1n[nH]c(-c2ccc(Cl)c(Cl)c2)n1 | 24 | – | MIC (Bacteria [1]): 0.25 µg/mL (≈ 0.539 µM)
Oc1c(Cl)cccc1-c1n[nH]c(-c2ccc(Cl)c(Cl)c2)n1 | > 500 | – | –
Oc1c(Cl)cc(Cl)cc1-c1n[nH]c(-c2ccc(Cl)c(C(F)(F)F)c2)n1 | 16 | 4.1 | MIC (Bacteria [4]): 0.25 µg/mL (≈ 0.612 µM); IC50 [5]: 65 µM
O=C(Nc1ccc(Cl)c(Cl)c1)c1cc(Cl)cc(Cl)c1O [3,3',4',5-TETRACHLOROSALICYLANILIDE] | 37 | – | MIC (Bacteria [7]): 0.1 µg/mL (≈ 0.285 µM)
Oc1c(Br)cc(Br)cc1-c1n[nH]c(-c2ccc(Oc3ccccc3)cc2)n1 | 100 | 0.75 | IC50 [5]: 75 µM
Oc1c(-c2n[nH]c(-c3ccc(Cl)c(Cl)c3)n2)cc(C(F)(F)F)cc1C(F)(F)F | 44 | – | MIC (Bacteria [4]): 0.25 µg/mL (≈ 0.565 µM)
NS(=O)(=O)c1ccc(O)c(-c2n[nH]c(-c3ccc(Cl)c(Cl)c3)n2)c1 | 91 | – | MIC (Bacteria [8]): 8 µg/mL (≈ 20.8 µM)
Oc1c(Cl)cc(Cl)cc1-c1n[nH]c(-c2ccccc2)n1 | 380 | – | –
CC(C)(C)c1cc(-c2n[nH]c(-c3ccc(Cl)c(Cl)c3)n2)c(O)c(C(C)(C)C)c1 | > 500 | – | –
O=[N+]([O-])c1cc(-c2n[nH]c(-c3ccc(Cl)c(Cl)c3)n2)c(O)c([N+](=O)[O-])c1 | 8 | 3.5 | MIC (Bacteria [11]): > 64 µg/mL; IC50 [12]: 28 µM

Continued, in another order:

IC50 [2] [µM] | Ratio [6] | Compound | further results
> 500 | – | Cc1ccc(-c2n[nH]c(-c3cc(Cl)cc(Cl)c3O)n2)cc1C | MIC (Bacteria [3]): 4 µg/mL (≈ 12 µM)
> 500 | – | COc1ccc(-c2n[nH]c(-c3cc(Cl)cc(Cl)c3O)n2)cc1 | –
> 500 | – | CC(C)c1ccc(-c2n[nH]c(-c3cc(Cl)cc(Cl)c3O)n2)cc1 | –
> 500 | – | O=[N+]([O-])c1ccc(-c2nc(-c3cc(Cl)cc(Cl)c3O)n[nH]2)cc1 | –
67 | 2.2 | Oc1c(Cl)cc(Cl)cc1-c1n[nH]c(-c2ccc(Cl)c(Cl)c2)n1 | MIC (Bacteria [1]): 0.25 µg/mL (≈ 0.667 µM); IC50 [5]: 150 µM
87 | 1.5 | Oc1c(Cl)cc(Cl)cc1-c1n[nH]c(-c2cccc(Cl)c2)n1 | MIC (Bacteria [9]): 0.5 µg/mL (≈ 1.47 µM); IC50 [5]: 130 µM
80 | 0.71 | Oc1c(Cl)cc(Cl)cc1-c1n[nH]c(-c2ccc(Cl)cc2)n1 | IC50 [5]: 57 µM; MIC (Bacteria [10]): 0.5 µg/mL (≈ 1.47 µM)
> 500 | – | Oc1ccc(Cl)cc1-c1n[nH]c(-c2ccc(Cl)c(Cl)c2)n1 | MIC (Bacteria [11]): > 32 µg/mL

Source: ChEMBL document CHEMBL1131513, “SAR studies of diaryltriazoles against bacterial two-component regulatory systems and their antibacterial activities” (Bioorg Med Chem Lett, 1998)
